Measured values reported in patent publication US11174245B2, “Benzimidazole compounds and derivatives as EGFR inhibitors” (Boehringer Ingelheim International GmbH, priority 2018, dated 2021).
Read-outs that look alike come from different tables or passages of the source.

Assays:
[1] = biological target: EGFR wt (Homo sapiens (Human), UniProt P00533); test: Biochemical EGFR inhibition assay (TR-FRET, poly-GT substrate), EGFR wt
Procedure: (§1) Biochemical EGFR Inhibition Assays
(§2) Initially, the inhibitory effect of compounds according to the invention is measured in biochemical assays which measure the phosphorylation activity of EGFR enzyme forms on poly-GT substrate in the presence of different concentrations of ATP (5 μM and 100 μM final assay concentration).
(§3) The following enzyme forms of EGFR are representative examples that can be used in these assays at the given concentrations:
(§4) For the chosen highest assay concentration of 100 μM, 150 nL of compound solution is transferred from a 10 mM DMSO compound stock solution. A series of eleven fivefold dilutions per compound is transferred to the assay plate, compound dilutions are tested in duplicates. DMSO is added as backfill to a total volume of 150 nL. The assay runs on a fully automated robotic system.
(§5) These biochemical EGFR enzyme form compound dose-response assays quantify the kinase activity via phosphorylation of a tagged poly-GT substrate. The results of the assay are provided as IC50 values.

[2] = biological target: EGFR (mutated) 695-1022, T790M, C797S, L858R (Homo sapiens (Human), UniProt P00533, C797S/L858R/T790M); test: Biochemical EGFR inhibition assay (TR-FRET, poly-GT substrate), EGFR T790M C797S L858R
Sequence of EGFR (mutated) 695-1022, T790M, C797S, L858R (P00533 695-1022 T790M/C797S/L858R): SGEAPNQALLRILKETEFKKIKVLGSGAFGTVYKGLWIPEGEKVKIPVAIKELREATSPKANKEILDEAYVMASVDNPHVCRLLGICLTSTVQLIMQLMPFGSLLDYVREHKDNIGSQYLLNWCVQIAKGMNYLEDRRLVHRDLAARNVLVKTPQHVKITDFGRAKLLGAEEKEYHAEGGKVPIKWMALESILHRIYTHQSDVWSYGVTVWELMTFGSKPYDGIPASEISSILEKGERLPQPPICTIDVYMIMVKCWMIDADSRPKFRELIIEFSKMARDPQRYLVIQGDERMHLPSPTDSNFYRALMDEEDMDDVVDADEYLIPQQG
Procedure: as §1, §2, §3, §4, §5

[3] = biological target: EGFR del19 T790M C797S protein in Ba/F3 cells (Homo sapiens, UniProt P00533, C797S/DEL746-750/T790M); test: pEGFR assay (AlphaScreen Surefire, EGFR Tyr1068 phosphorylation); format: cell-based
Sequence of EGFR del19 T790M C797S protein in Ba/F3 cells (P00533 with tags, fused parts or gaps C797S/DEL746-750/T790M limits assumed): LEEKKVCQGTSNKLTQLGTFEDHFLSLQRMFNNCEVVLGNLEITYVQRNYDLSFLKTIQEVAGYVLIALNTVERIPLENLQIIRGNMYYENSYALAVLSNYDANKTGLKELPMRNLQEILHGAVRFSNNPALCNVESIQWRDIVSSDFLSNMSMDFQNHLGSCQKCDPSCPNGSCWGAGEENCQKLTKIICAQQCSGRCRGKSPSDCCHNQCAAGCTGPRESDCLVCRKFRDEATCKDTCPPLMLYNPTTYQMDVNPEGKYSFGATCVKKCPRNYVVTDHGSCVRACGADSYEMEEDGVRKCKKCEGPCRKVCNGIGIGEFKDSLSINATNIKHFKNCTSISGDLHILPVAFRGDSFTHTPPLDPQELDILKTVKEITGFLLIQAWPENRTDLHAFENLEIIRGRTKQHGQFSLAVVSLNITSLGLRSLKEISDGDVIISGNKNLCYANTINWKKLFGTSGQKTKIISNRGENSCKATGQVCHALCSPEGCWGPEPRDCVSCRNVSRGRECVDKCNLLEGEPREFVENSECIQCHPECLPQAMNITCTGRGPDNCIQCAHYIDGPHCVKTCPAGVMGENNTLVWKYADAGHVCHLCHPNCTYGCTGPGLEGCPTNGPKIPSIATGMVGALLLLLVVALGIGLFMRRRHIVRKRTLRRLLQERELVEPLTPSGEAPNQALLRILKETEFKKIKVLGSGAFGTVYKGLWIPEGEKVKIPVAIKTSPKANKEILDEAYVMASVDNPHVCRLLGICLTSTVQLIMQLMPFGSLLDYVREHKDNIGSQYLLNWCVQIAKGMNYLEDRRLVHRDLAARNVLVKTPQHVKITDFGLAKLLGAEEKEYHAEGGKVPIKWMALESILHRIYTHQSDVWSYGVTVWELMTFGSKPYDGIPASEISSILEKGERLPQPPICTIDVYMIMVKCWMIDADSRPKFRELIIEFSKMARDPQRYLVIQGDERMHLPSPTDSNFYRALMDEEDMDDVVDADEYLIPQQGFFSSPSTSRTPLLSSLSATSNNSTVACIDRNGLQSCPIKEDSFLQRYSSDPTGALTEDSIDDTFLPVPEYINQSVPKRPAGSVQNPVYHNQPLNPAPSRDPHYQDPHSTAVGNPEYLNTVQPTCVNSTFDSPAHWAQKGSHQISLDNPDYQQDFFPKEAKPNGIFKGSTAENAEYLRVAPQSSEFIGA
Procedure: Transduced cells were selected using puromycin. Following selection, IL-3 was withdrawn and IL-3 independent cells cultured. p-EGFR Tyr1068 was determined using the AlphaScreen Surefire pEGF Receptor (Tyr1068) Assay (PerkinElmer, TGRERS). […] Subsequently, 60.000 cells/well in 60 μL were added. Cells were incubated with compound for 4 h at 37° C. […] The mixture was incubated at room temperature with shaking (700 rpm) for 20 min. After centrifugation, 4 μL of the lysate were transferred to Proxiplates. […] Plates were shaken for 1 min (1400 rpm) and incubated for 2 h at room temperature in the dark.
The results of the assay are provided as IC50 values (see table 12).

[4] = read-out: wt (5 μM ATP) IC50, 5 μM ATP
[5] = read-out: LR_TM_CS (5 μM ATP) IC50, 5 μM ATP
[6] = read-out: wt (100 μM ATP) IC50, 100 μM ATP
[7] = read-out: LR_TM_CS (100 μM ATP) IC50, 100 μM ATP

Sequence of EGFR wt (P00533 25-1210): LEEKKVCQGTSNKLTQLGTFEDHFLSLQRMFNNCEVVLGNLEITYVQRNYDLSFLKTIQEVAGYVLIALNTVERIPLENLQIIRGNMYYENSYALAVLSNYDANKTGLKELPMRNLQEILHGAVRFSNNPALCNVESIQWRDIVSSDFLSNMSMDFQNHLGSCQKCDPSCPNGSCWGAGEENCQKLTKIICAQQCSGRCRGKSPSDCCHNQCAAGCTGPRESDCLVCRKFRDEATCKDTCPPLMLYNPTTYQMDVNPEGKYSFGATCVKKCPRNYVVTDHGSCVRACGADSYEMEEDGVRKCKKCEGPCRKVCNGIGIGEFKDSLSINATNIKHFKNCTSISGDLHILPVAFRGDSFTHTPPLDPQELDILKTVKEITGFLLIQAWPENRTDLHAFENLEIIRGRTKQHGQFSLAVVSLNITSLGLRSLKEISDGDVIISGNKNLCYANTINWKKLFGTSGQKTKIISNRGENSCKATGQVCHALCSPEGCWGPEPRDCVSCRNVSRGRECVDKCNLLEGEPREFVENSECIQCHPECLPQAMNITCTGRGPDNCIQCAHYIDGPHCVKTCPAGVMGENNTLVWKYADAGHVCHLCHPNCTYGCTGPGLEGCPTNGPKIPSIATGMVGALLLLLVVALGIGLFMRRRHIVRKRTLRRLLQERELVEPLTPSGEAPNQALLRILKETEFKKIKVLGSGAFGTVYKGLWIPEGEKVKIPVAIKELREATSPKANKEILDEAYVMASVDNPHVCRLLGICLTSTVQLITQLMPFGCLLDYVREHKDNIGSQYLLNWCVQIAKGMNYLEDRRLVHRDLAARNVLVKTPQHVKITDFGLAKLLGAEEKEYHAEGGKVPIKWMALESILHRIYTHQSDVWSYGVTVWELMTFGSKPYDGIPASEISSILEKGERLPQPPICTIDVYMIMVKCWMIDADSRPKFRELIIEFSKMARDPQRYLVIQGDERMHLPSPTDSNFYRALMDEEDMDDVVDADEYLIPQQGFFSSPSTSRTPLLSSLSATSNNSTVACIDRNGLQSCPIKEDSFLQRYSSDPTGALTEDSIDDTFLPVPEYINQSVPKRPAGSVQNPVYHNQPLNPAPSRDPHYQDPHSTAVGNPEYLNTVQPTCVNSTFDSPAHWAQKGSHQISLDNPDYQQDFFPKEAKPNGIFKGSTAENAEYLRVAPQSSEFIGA

SMILES	IC50 [1, 4] [nM]	IC50 [2, 5] [nM]	IC50 [3] [nM]	IC50 [1, 6] [nM]	IC50 [2, 7] [nM]
COc1c(F)cccc1-c1cc(C(=O)/N=c2\[nH]c3ccccc3n2[C@H]2CC[C@@H](O)CC2)ccn1 [I-175]	557	13.6	10	–	–
Cn1cc(-c2cc(C(=O)/N=c3\[nH]c4ccccc4n3[C@H]3CCC[C@@H](O)C3)ccn2)cn1 [I-126]	305	3.1	6	–	–
CC(C)(O)Cn1/c(=N/C(=O)c2ccnc(-c3ccccc3)c2)[nH]c2ccccc21 [I-064]	> 4000	13.1	9	> 100000	267
COc1ccncc1-c1cc(C(=O)/N=c2\[nH]c3ccccc3n2CC(C)(C)O)ccn1 [I-018]	–	–	1	10000	11.9
COc1ccccc1-c1cc(C(=O)/N=c2\[nH]c3ccccc3n2[C@@H]2CC[C@H](O)[C@H](O)C2)ccn1 [I-144]	110	6.9	3	–	–
COc1c(C)cccc1-c1cc(C(=O)/N=c2\[nH]c3ccccc3n2[C@H]2CC[C@@H](O)CC2)ccn1 [I-162]	1180	14.2	6	–	–
C#Cc1cc(C(=O)/N=c2\[nH]c3ccccc3n2[C@H]2CC[C@@H](O)CC2)cc(-c2cnn(C)c2)n1 [I-171]	2970	8.8	8	–	–
COc1ccccc1-c1cc(C(=O)/N=c2\[nH]c3cc(CN4CCOCC4)ccc3n2[C@H]2CCC[C@@H](O)C2)ccn1 [I-148]	77.8	3.3	4	–	–
Cn1cc(-c2cc(C(=O)/N=c3\[nH]c4cc(CN5CCOCC5)ccc4n3[C@H]3CC[C@@H](O)CC3)cc(F)n2)cn1 [I-135]	225	0.8	2	–	–
Cc1cccc(-c2cc(C(=O)/N=c3\[nH]c4ccccc4n3[C@H]3CC[C@@H](O)CC3)ccn2)c1 [I-161]	205	2.4	6	–	–
Cn1cc(-c2cc(C(=O)/N=c3\[nH]c4ccccc4n3[C@H]3CCC[C@H](O)C3)ccn2)cn1 [I-116]	104	0.7	1	–	–
Cn1cc(-c2cc(C(=O)/N=c3\[nH]c4ccccc4n3[C@H]3CCC[C@@H](O)C3)ccn2)cn1 [I-112]	777	3.1	13	–	–
COc1ccccc1-c1cc(C(=O)/N=c2\[nH]c3ccccc3n2[C@H]2CC[C@@H](O)CC2)ccn1 [I-108]	19.3	0.6	3	1010	10.3
COCCCNc1ccc2c(c1)[nH]/c(=N\C(=O)c1ccnc(-c3cccnc3)c1)n2CC(C)(C)O [I-78]	–	–	5	21100	95.2
COc1cc(F)ccc1-c1cc(C(=O)/N=c2\[nH]c3ccccc3n2[C@H]2CC[C@@H](O)CC2)ccn1 [I-169]	81.6	2.8	11	–	–
CC(C)(O)Cn1/c(=N/C(=O)c2ccnc(-c3cccnc3)c2)[nH]c2cc(CC(=O)N3CCCCC3)ccc21 [I-130]	–	–	5	> 100000	178
O=C(/N=c1\[nH]c2ccccc2n1[C@H]1CC[C@@H](O)CC1)c1ccnc(-c2cnn3cccnc23)c1 [I-115]	–	–	1	2420	5.8
CN(C)Cc1cccc(-c2cc(C(=O)/N=c3\[nH]c4ccccc4n3CC(C)(C)O)ccn2)c1 [I-102]	213	1	2	6060	13.7
COc1ccncc1-c1cc(C(=O)/N=c2\[nH]c3ccccc3n2[C@H]2CC[C@@H](O)CC2)cc(C#N)n1 [I-167]	995	4.6	7	–	–
Cn1cc(-c2cc(C(=O)/N=c3\[nH]c4ccccc4n3[C@@H]3CCC[C@H](O)C3)ccn2)cn1 [I-128]	1130	4	7	–	–
Cn1cc(-c2cc(C(=O)/N=c3\[nH]c4ccccc4n3[C@H]3COC[C@H](O)C3)ccn2)cn1 [I-168]	1270	5	10	–	–
COc1ccccc1-c1cc(C(=O)/N=c2\[nH]c3ccccc3n2[C@H]2CC[C@H](O)[C@H](O)C2)ccn1 [I-149]	148	8.5	4	–	–
O=C(/N=c1\[nH]c2ccccc2n1[C@H]1CC[C@@H](O)CC1)c1ccnc(-c2ccccc2)c1 [I-107]	336	1.8	4	> 100000	45.7
CC(C)(O)Cn1/c(=N/C(=O)c2ccnc(-c3cccn4cnnc34)c2)[nH]c2ccccc21 [I-91]	14700	61.1	16	–	–
CC(C)(O)Cn1/c(=N/C(=O)c2ccnc(-c3cccnc3)c2)[nH]c2cc(CCO)ccc21 [I-056]	> 100000	118	5	–	–
COc1ccccc1-c1cc(C(=O)/N=c2\[nH]c3ccccc3n2[C@H]2CCC[C@@H](O)C2)ccn1 [I-118]	34.5	0.7	3	–	–

The remaining lines, values ahead:

IC50 [1, 4] [nM]	IC50 [2, 5] [nM]	IC50 [3] [nM]	IC50 [1, 6] [nM]	IC50 [2, 7] [nM]	SMILES
77.1	7.7	18	–	–	COc1ccccc1-c1cc(C(=O)/N=c2\[nH]c3ccccc3n2[C@@H]2CC[C@H](O)[C@@H](O)C2)ccn1 [I-198]
1480	3.6	8	–	–	CC(=O)N1CCC(c2ccc3c(c2)[nH]/c(=N\C(=O)c2cc(C)nc(-c4cnn(C)c4)c2)n3[C@H]2CC[C@@H](O)CC2)CC1 [I-205]
1520	6.8	15	–	–	Cn1cc(-c2cc(C(=O)/N=c3\[nH]c4cc(CC#N)ccc4n3CC(C)(C)O)ccn2)cn1 [I-199]
318	2.5	22	–	–	Cn1cc(-c2cc(C(=O)/N=c3\[nH]c4ccccc4n3C3CCCS(=O)(=O)C3)ccn2)cn1 (centres unmarked) [I-212]
1520	7.8	19	–	–	Cn1cc(-c2cc(C(=O)/N=c3\[nH]c4cc(CCCO)ccc4n3CC(C)(C)O)ccn2)cn1 [I-184]
3600	33.8	12	–	–	O=C(/N=c1\[nH]c2ccccc2n1[C@H]1CC[C@@H](O)CC1)c1ccnc(-c2cccn3ncnc23)c1 [I-179]
2670	8.1	17	–	–	Cn1cc(-c2cc(C(=O)/N=c3\[nH]c4ccccc4n3[C@H]3CC[C@@H](O)CC3)cc(CF)n2)cn1 [I-216]
> 100000	54.1	45	–	–	Cc1cc(C(=O)/N=c2\[nH]c3ccc(CN4CCOCC4)cc3n2CC(C)(C)O)cc(-c2cnn(C)c2)n1 [I-213]
5010	2.7	7	–	–	Cc1cc(C(=O)/N=c2\[nH]c3cc(CN4CCOCC4)ccc3n2[C@H]2CC[C@@H](O)CC2)cc(-c2cnn(C)c2)n1 [I-197]
539	3	26	–	–	Cn1cc(-c2cc(C(=O)/N=c3\[nH]c4ccccc4n3[C@H]3C[C@H](O)C[C@H](O)C3)ccn2)cn1 [I-207]
293	4	11	–	–	O=C(/N=c1\[nH]c2ccccc2n1[C@H]1CC[C@@H](O)CC1)c1ccnc(-c2ccncc2)c1 [I-176]
31	1.7	12	–	–	COc1ccccc1-c1cc(C(=O)/N=c2\[nH]c3cc(CN4CCOCC4)ccc3n2[C@H]2CCC[C@H](O)C2)ccn1 [I-181]
302	4.8	12	–	–	O=C(/N=c1\[nH]c2ccccc2n1[C@H]1CC[C@@H](O)CC1)c1ccnc(-c2ccc(F)cc2F)c1 [I-180]
249	0.3	1	–	–	Cn1cc(-c2cc(C(=O)/N=c3\[nH]c4ccccc4n3[C@H]3CC[C@@H](O)CC3)cc(N)n2)cn1 [I-211]
173	0.9	5	–	–	CC(=O)N1CCC(c2ccc3c(c2)[nH]/c(=N\C(=O)c2cc(C#N)nc(-c4cnn(C)c4)c2)n3[C@H]2CC[C@@H](O)CC2)CC1 [I-202]
5800	8.1	14	–	–	Cc1cc(C(=O)/N=c2\[nH]c3cc(CN4CCOCC4)ccc3n2[C@H]2CCC[C@H](O)C2)cc(-c2cnn(C)c2)n1 [I-209]
8380	4.9	14	–	–	CNc1cc(C(=O)/N=c2\[nH]c3ccccc3n2[C@H]2CC[C@@H](O)CC2)cc(-c2cnn(C)c2)n1 [I-215]
664	4.3	9	–	–	Cn1cc(-c2cc(C(=O)/N=c3\[nH]c4ccccc4n3[C@H]3CCC[C@H](O)C3)cc(C#N)n2)cn1 [I-210]
